Data set [1] concerns human OPRK (κ-opioid receptor). In words: biochemical. Type of data set: binding.
Data set [2] concerns the target T1, human OPRM (μ-opioid receptor) (Homo sapiens, UniProt P35372). The following applies: cited from earlier work.
In data set [3] the target is T2, human OPRM (Homo sapiens, UniProt P35372). The arrangement: expressed in transfected cells; host or cells: CHO-K1 (cell lines provided by Dr. Toll, Torrey Pines Institute). The settings on record: cited from earlier work.
T2 sequence (P35372 whole entry): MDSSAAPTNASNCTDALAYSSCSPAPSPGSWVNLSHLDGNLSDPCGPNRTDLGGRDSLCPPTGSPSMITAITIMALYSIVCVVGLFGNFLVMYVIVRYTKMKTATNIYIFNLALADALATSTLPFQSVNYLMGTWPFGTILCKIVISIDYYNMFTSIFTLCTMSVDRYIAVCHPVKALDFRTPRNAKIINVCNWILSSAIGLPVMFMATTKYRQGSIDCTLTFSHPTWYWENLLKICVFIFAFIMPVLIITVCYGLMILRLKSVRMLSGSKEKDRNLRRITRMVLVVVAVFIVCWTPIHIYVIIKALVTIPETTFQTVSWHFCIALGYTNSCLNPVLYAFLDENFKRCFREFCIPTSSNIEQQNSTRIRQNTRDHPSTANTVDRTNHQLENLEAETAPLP
The target in data set [4] is T2, human OPRM. In words: cell-based. The arrangement: host or cells: CHO-K1. Type of data set: cell-based.
Data set [5] addresses T2, human OPRM. As to the kind of experiment: biochemical. The arrangement: expressed in transfected cells; host or cells: CHO-K1 (cell lines provided by Dr. Toll, Torrey Pines Institute). Type of data set: biochemical.
Data set [6] has as its target calf OPRM (Bos taurus, UniProt P79350). The following applies: calf receptor, literature, cited from earlier work.
In data set [7] the target is OPRD: opioid receptor delta (Bos taurus, UniProt F1N083). The settings on record: literature (Pearl, Herrick-Davis et al. 1995); cited from earlier work.
Sequence of OPRD: opioid receptor delta (F1N083 1-372): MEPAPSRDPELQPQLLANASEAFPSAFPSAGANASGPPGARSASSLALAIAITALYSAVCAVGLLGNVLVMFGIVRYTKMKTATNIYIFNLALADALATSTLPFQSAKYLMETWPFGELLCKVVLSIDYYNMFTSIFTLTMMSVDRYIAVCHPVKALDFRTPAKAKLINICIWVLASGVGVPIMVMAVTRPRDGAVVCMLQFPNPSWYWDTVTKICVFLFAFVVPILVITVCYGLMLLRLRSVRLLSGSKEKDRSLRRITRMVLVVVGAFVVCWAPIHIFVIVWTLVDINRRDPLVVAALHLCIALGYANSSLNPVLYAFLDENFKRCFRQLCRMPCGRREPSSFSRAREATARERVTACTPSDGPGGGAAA
Data set [8] concerns the target T1, human OPRM (μ-opioid receptor). As to the kind of experiment: biochemical. Type of data set: binding. The arrangement: expressed in transfected cells; host or cells: CHO-K1 (cell lines provided by Dr. Toll, Torrey Pines Institute).
Data set [9] addresses T3, OPRK (Homo sapiens, UniProt P41145). In words: cell-based. The arrangement: host or cells: CHO-K1. The following applies: OPRK, inhibitory component; pKi-pKe.
A short description of data set [10]: Ascending single-dose pharmacokinetics of noribogaine in healthy volunteers. The settings on record: for Cmax / Tmax / AUC0-216 / AUC0-∞ / t1/2: fasted healthy males, mean (SD), n = 6.
The target in data set [11] is T4, human OPRK (κ-opioid receptor) (Homo sapiens, UniProt P41145).
T4 construct: purchased PerkinElmer Life Sciences (Boston, Mass.)
T4 sequence (P41145 whole entry): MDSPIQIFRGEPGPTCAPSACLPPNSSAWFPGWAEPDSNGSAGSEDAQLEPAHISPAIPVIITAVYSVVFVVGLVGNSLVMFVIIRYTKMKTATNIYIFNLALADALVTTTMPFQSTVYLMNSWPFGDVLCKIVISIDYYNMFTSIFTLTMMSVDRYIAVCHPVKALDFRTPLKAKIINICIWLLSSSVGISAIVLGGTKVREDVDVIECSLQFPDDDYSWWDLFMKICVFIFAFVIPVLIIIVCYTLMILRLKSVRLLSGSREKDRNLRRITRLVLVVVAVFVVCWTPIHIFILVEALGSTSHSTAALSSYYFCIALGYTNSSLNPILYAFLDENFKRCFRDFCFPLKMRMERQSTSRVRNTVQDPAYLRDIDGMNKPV
As to the kind of experiment: biochemical. The format is binding. The following applies: for Ki: read-out: Ki.

The target in data set [12] is calf OPRK (Bos taurus, UniProt Q2KIP6). The following applies: calf receptor, literature; cited from earlier work.
Sequence of calf OPRK (Q2KIP6 whole entry): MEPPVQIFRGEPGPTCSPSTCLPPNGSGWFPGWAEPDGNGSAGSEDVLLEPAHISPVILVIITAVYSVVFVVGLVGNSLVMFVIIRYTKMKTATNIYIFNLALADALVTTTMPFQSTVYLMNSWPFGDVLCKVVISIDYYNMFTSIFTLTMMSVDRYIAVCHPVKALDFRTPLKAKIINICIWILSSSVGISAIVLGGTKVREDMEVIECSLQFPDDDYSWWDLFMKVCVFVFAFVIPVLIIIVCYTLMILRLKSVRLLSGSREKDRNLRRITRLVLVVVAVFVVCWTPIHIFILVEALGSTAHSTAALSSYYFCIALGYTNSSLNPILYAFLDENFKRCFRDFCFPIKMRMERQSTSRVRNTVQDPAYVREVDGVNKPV
The target of data set [13] is T3, OPRK. In words: biochemical. On the set-up: purchased PerkinElmer Life Sciences (Boston, Mass.).
The mark [14] stands for this setting: 30 mg noribogaine single oral dose.
The mark [15] stands for this setting: 30 mg noribogaine single oral dose, plasma.
The mark [16] stands for this setting: 60 mg noribogaine single oral dose.
Setting [17] is: 60 mg noribogaine single oral dose, plasma.
The mark [18] stands for this setting: OPRK, [3H]-U69,593 binding, This work.

Several values for one entry are separate records, joined by “and”; a condition that tells them apart may be missing. Equal entries are not always repeated. Where two headings read alike, the source gives them in different places. Marks after values point to notes of the source that are not given here.

Usually Ki stands for a measure of affinity in units of concentration, obtained from inhibition or displacement. As usually defined, the pKi is the negative decadic logarithm of the Ki, by convention in mol/L. One may read the EC50 as the midpoint of the concentration-response curve. The Emax is the size of the effect at its maximum, as opposed to the concentration needed. A word on the pEC50: it is the EC50 on a negative log10 scale, so that one unit is a factor of ten. Low values mean a high EC50, high ones a low EC50.

T3 sequence (P41145 whole entry): as the sequence (P41145 whole entry) above
Sequence of calf OPRM (P79350 whole entry): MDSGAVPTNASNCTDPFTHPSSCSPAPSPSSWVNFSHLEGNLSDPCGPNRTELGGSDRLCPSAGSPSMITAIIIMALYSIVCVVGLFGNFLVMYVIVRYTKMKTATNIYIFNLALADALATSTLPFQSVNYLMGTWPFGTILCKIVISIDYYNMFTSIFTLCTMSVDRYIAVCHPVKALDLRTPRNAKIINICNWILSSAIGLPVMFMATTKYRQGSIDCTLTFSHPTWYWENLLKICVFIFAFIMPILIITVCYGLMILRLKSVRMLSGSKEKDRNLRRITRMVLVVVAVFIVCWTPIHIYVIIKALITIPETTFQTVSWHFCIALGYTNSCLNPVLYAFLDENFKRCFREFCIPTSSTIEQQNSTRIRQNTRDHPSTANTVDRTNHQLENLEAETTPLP
T1 sequence (P35372 whole entry): as the sequence (P35372 whole entry) above

In the case of `NC(N)=Nc1ccc2c3c([nH]c2c1)[C@@H]1Oc2c(O)ccc4c2[C@@]12CCN(CC1CC1)[C@H](C4)[C@]2(O)C3` [6′GNTI], the “Specificity ΔpKi” value in data set [1] (ΔpKi = pKi(OPRK)-pKi(OPRM)) is given as 1.84. In data set [2], the Ki was 82 nM and the pKi is 7.1. In addition, in data set [3] (OPRM, activation, literature), the EC50 was more than 1000 nM and the Efficacy is 0~ %.

For `C[C@@H](NC(=O)[C@@H](N)Cc1ccc(O)cc1)C(=O)NCC(=O)N(C)[C@@H](Cc1ccccc1)C(=O)NCCO` [DAMGO, [D-Ala2, NMe-Phe4, Gly-ol5]-enkephalin], the “Specificity ΔpKi” value in data set [1] (ΔpKi = pKi(OPRK)-pKi(OPRM)) is reported as less than −3.

Turning to [Met]-Enkephalin [reference compound], in data set [1], the “Specificity ΔpKi” value is listed as less than −3. The Efficacy in data set [4] was 100%; in [3], approximately 95%. In addition, the e-coupling in data set [4] was determined as 1.94; in data set [5] it was 1.8.

For `CC[C@H]1CC2C[C@H]3c4[nH]c5ccc(OC)cc5c4CCN(C2)C13` [Ibogaine, reference compound], in [6], the Ki is 11000 nM and the negative logarithm of the Ki (pKi) is given as 5.0*. For the same molecule, in [7], the “Ki at OPRD” value is “N.Q.)”. For the same molecule, in data set [8], the affinity corresponds to a Ki of 6920 ± 830 nM. The “stimulation of the OPRM G-protein pathway” value in data set [5] is on record as “failed to stimulate”. Besides, in [5] (read-out: Efficacy (Emax)), the Emax was -2.9%.

For the molecule `C=C1CC[C@@]2(O)[C@H]3Cc4ccc(O)c5c4[C@@]2(CCN3CC2CC2)[C@H]1O5` [Nalmefene, reference compound], in [1] (ΔpKi = pKi(OPRK)-pKi(OPRM)), the “Specificity ΔpKi” value amounted to 1.1.

Take `Oc1ccc2c3c1O[C@H]1c4[nH]c5c(c4C[C@@]4(O)[C@@H](C2)N(CC2CC2)CC[C@]314)C[C@@]1(O)[C@H]2Cc3ccc(O)c4c3[C@@]1(CCN2CC1CC1)[C@H]5O4` [NorBNI, nor-binaltorphimine, reference compound]: the “Specificity ΔpKi” value in data set [1] (ΔpKi = pKi(OPRK)-pKi(OPRM)) was 2.0. The molecule further had an e-coupling in data set [9] of 0.27.

Turning to `CC[C@H]1C[C@@H]2C[C@H]3c4[nH]c5ccc(OC6OC(C(=O)O)C(O)C(O)C6O)cc5c4CCN(C2)[C@@H]13` (stereo partly shown) [Noribogaine glucuronide], in data set [10] (setting [14]), the Cmax is 1.8 (0.6) ng/ml and the Tmax was 3.0 (0.6) hr. Besides, in data set [10] (setting [15]), the AUC0-216 was 25.7 (9.1) ng · hr/ml, the “AUC0-∞” value is 25.8 (9.3) ng · hr/ml and the t1/2 is reported as 20.6 (4.9) hr. Besides, in [10] (setting [16]), the Cmax was 4.1 (1.2) ng/ml and the Tmax was 3.8 (1.2) hr. Moreover, in data set [10] (setting [17]), the AUC0-216 is on record as 65.0 (21.5) ng · hr/ml, the “AUC0-∞” value is listed as 67.1 (21.9) ng · hr/ml and the t1/2 was 23.1 (3.0) hr. Moreover, in [10] (across dose groups, healthy volunteers), the “time of peak concentrations after oral noribogaine dosing” value is 3 to 4 h. Besides, the Mean half-life in data set [10] (across dose groups, healthy volunteers, plasma) is 21 to 23 h. In addition, in data set [10] (both dose groups (30 mg, 60 mg)), the “proportion of noribogaine glucuronide Cmax and AUC relative to noribogaine” value is reported as 3-4%. In [10] (plasma, 30 mg and 60 mg noribogaine dose groups), the “time by which detected in all subjects” value was not above 0.75 h.

Regarding `COCC[C@H]1CC2CN3CCc4c([nH]c5ccccc45)[C@](C(=O)OC)(C2)[C@H]13` [18-MC, 18-methoxycoronaridine], the pKi in data set [11] (setting [18]) is listed as 5.7*; in data set [6] it was 6.0*; in data set [12], 5.3*; in [8] it was 5.6*. The Ki in data set [11] (setting [18]) was 1800 nM; in data set [11] (human OPRK, [3H]-U69,593), 1840 ± 120 nM; in [6] (read-out: Ki) it was 1100 nM; in [12] it was 5100 nM; in data set [8] (read-out: Ki) it was 2260 nM and 2360 nM. Also, in data set [1] (this work), the “affinity at human OPRK versus OPRM” value is listed as “equi-affine”. The “reported selectivity at OPRM” value in data set [2] was 5 ×. Also, the “Efficacy (Emax)” value in data set [13] and in data set [5] was less than 5% each time. In data set [13], the pEC50 is 4.8. Besides, in data set [13], the “pEC50, (Ke): pKe” value is given as 5.3. Besides, the “stimulation of [35S]GTPγS binding to OPRK” value in [13] is “failed to stimulate”. Besides, the EC50 in data set [13] (read-out: EC50) is approximately 16000 nM. For the same molecule, the “stimulation of the OPRM G-protein pathway” value in data set [5] is on record as “failed to stimulate”.

The values are drawn from patent publication US20150258108A1 (priority 2014, published 2015).
